Data reported in publication PMC9026148, “Pre-Clinical Study Evaluating Novel Protein Phosphatase 2A Activators as Therapeutics for Neuroblastoma” (Cancers, 2022).

Key:
SK-N-AS flank tumors = assay: SK-N-AS flank tumor growth in athymic nude mice; format: in vivo, mouse; conditions: 50 mg/kg bid po; for Percent necrosis in SK-N-AS tumors: H&E, blinded pathologist, vehicle 8.3 ± 3.3%; for tumor volume: SK-N-AS flank tumors, after 9 days, vehicle 2104 ± 53
Description: SK-N-AS (1.8 × 10^6) or SK-N-BE(2) (1.5 × 10^6) cells in 25% Matrigel™ (BD Biosciences) were injected into the right flank of 6-week-old female athymic nude mice (Fredricks, Charles River, Wilmington, MA, USA) (n = 5 for SK-N-AS vehicle treated, n = 7 for SK-N-AS 792 or 1154 treatment and all SK-N-BE(2) experimental groups). Calipers were used to measure tumors three times per week, and volumes were calculated by the formula (width^2 × length)/2, where width was the smaller measurement. After tumors reached a volume of 100 mm^3, animals were randomized to three groups to receive 100 µL of either vehicle (N,N-dimethylacetamide (DMA, 271012, Sigma Aldrich) and Kolliphor® HS 15 (Solutol, 42996, Sigma Aldrich)), 792 (50 mg/kg in DMA and Solutol), or 1154 (50 mg/kg in DMA and Solutol) twice daily by oral gavage; dosing based on previously published in vivo cancer models. Animals were weighed weekly and were humanely euthanized in their home cages with CO2 and cervical dislocation when control tumors reached 2000 mm^3; either 9 (SK-N-AS tumors) or 19 days (SK-N-BE(2) tumors) following treatment initiation, or when IACUC parameters were met. Power analysis was completed prior to the study.

[1] = Microsome (oxidative metabolism) stability, rat; format: in vitro ADME; conditions: for half-life at 1 µM: liver microsomes 0.5 mg/mL, NADPH, read-out: T1/2 Rat; for microsomal CLint at 1 µM: liver microsomes, read-out: CL Rat
Description: Microsome stability assays were performed by Bioduro, LLC. Briefly, 2.5 µL (100 µM in DMSO) of test compounds are added to 197.5 µL of human, rat, or mouse microsome preparation (0.633 mg/mL in phosphate buffer) and mixed gently at 37 °C. The reaction is started by adding 50 µL NADPH (5 mM in phosphate buffer) and mixing at 37 °C. The final reaction microsome concentration is 0.5 mg/mL. The reaction is sampled at 0, 5, 15, 30, and 60 min. Reaction aliquots are quenched by adding to 1:1 methanol–acetonitrile containing analytical standards and analyzed by liquid chromatography with tandem mass spectrometry (LC-MS/MS).

[2] = system: SK-N-AS, SK-N-BE(2), SH-EP, WAC2, COA6, COA129 cells; assay: alamarBlue viability, long-term cell lines and PDX cells; format: cell-based, human; conditions: increasing doses, 24 h; all cell lines
Description: CellTiter 96® Aqueous One Solution Cell Proliferation assay (Promega, Madison, WI, USA) was used to examine proliferation, and alamarBlue® assay (Thermo Fisher Scientific, Inc.) was used to evaluate viability. Cells, concentrations ranging from 5 × 10^3 to 1.5 × 10^4, depending on cell type due to wide variation in growth characteristics between established cell lines and PDX cells, were plated in 96-well plates and treated with increasing doses of 792 or 1154 for 24 h. CellTiter 96® or alamarBlue® dye (10 µL) was added for proliferation and viability assays, respectively. A microplate reader (Epoch Microplate Spectrophotometer, BioTek Instruments, Winooski, VT) measured absorbance at 490 nm for CellTiter 96® and at 570 nm for alamarBlue®, using 600 nm as a reference. […] Experiments were completed with at least three biologic replicates, and data reported as fold change ± SEM.
Supplemental Figure S5: Treatment of neuroblastoma cell lines with 792 or 1154 resulted in decreased viability. Neuroblastoma cells ( 1.5 x 104 for AS, BE, SH-EP, WAC, COA6; 3 x 105 for COA129) were plated in 96-well plates and treated with increasing doses of 792 or […]
viability following increasing doses of either 792 (A) or 1154 (B). Similarly, increasing […]
PDXs. Data reported as mean fold change ± SEM, and experiments were repeated with at least three biologic replicates. […]

CIP2A = assay: Immunoblotting of CIP2A in neuroblastoma cells; format: cell-based, human; conditions: increasing concentrations, 24 h; all cell lines except WAC2 and COA129 treated with 792
Description: Following treatment, cells were lysed on ice using radioimmunoprecipitation (RIPA) buffer with phosphatase inhibitors (P5726, Sigma Aldrich), protease inhibitors (P8340, Sigma Aldrich), and phenylmethanesulfonylfluoride (PMSF, P7626, Sigma Aldrich) for 60 min. Cell lysates were centrifuged at 17,000 rpm for 30 min at 4 °C. Pierce™ BCA Protein Assay (Thermo Fisher Scientific, Inc.) determined protein concentration and proteins were separated by electrophoresis on sodium dodecyl sulfate polyacrylamide (SDS-PAGE) gels. Expected size of the targeted proteins was confirmed using molecular weight markers (Precision Plus Protein Kaleidoscope, Bio-Rad, Hercules, CA, USA). […] Immunoblots were developed with Luminata Classico or Crescendo Western horseradish peroxidase substrate (EMD Millipore, Burlington, MA, USA). Either anti-vinculin or anti-β-actin (as available from manufacturer) served as an internal loading control. We performed densitometry of Western blots using ImageJ software (Ver 1.49, http://imagej.nih.gov/ij (accessed on 9 February 2022).

[3] = system: SK-N-AS, SK-N-BE(2), SH-EP, WAC2 cells; assay: Monolayer wound healing (scratch) migration assay; format: cell-based, human; conditions: 36 h; 792 10 μM SK-N-AS, 15 μM others; 1154 10 μM SK-N-AS and SK-N-BE(2), 15 μM SH-EP and WAC2
Description: Since the established neuroblastoma cell lines grow as adherent cells, migration in SK-N-AS, SK-N-BE(2), SH-EP, and WAC2 cells was examined using monolayer wound healing (scratch) assay. […] Once cells reached 80% confluence, a sterile 200 μL pipette tip was used to make a standard scratch in the cell layer. Photographs of the plates were obtained at 0, 12, 24, and 36 h. ImageJ MRI Wound Healing Tool (http://imagej.nih.gov/ij/ (accessed on 14 October 2019) quantified the open wound area, and data reported as fold change of the open area ± SEM. Invasion was evaluated with a modified Boyden chamber technique. The insert bottoms were coated with collagen type I (10 µg/mL, MP Biomedicals, Santa Ana, CA, USA). The insert tops were coated with a layer of Matrigel^TM (1 mg/mL, 50 μL, BD Biosciences). Cells were treated for 24 h with 792 (SK-N-AS 10 μM; SK-N-BE(2), SH-EP, WAC2 15 μM) or 1154 (SK-N-AS, SK-N-BE(2) 10 μM; SH-EP, WAC2 15 μM), plated (4 × 10^4 cells), and allowed to invade through the membrane for 24 h. Insert membranes were fixed using 4% paraformaldehyde, stained with 1% crystal violet for 15 min, photographed, and invasion quantified with ImageJ (http://imagej.nih.gov/ij/ (accessed on 10 September 2019)). Invasion data were reported as mean percent membrane occupied by cells ± SEM. Experiments were completed with at least three biologic replicates.

| Structure (SMILES) | Percent necrosis in SK-N-AS tumors (SK-N-AS flank tumors) | tumor volume (SK-N-AS flank tumors) | ganglion cells in tumors (tumor cell differentiation) (SK-N-AS flank tumors; SK-N-AS tumors, H&E staining) | half-life at 1 µM [1] | microsomal CLint at 1 µM [1] | viability [2] | expression of CIP2A (CIP2A) | Migration (fold change of open wound area) [3] |
| --- | --- | --- | --- | --- | --- | --- | --- | --- |
| O=S(=O)(N[C@H]1COC[C@@H](n2c3ccc(Cl)cc3c3cc(Cl)ccc32)[C@@H]1O)c1ccc(OC(F)(F)F)cc1 [ATUX-792] | 33.3 ± 8.8% | 1309 ± 169 mm^3 | ganglion cells present | > 256 min | < 5 µL/min/mg | significantly decreased viability | decreased | significantly decreased |
| O=S(=O)(NC1CCCC(N2c3ccccc3CCc3ccccc32)C1O)c1ccc(OC(F)(F)F)cc1 (stereo not drawn) [DBK-1154] | 23.3 ± 6.7% | 2124 ± 275 mm^3 |  | 3 min | 521 µL/min/mg | significantly decreased viability | decreased | significantly decreased |
